Legend:
reticulon-4 (RTN4/Nogo) [1] = target: T1, reticulon-4 (RTN4/Nogo) (Homo sapiens, UniProt Q9NQC3); test: microscale thermophoresis (MST); supported by competitive pull-down; type: binding; design: RTN4B isoform focused on; MST construct printed only as RTN4
T1 sequence (Q9NQC3 1-373 isoform Q9NQC3-2): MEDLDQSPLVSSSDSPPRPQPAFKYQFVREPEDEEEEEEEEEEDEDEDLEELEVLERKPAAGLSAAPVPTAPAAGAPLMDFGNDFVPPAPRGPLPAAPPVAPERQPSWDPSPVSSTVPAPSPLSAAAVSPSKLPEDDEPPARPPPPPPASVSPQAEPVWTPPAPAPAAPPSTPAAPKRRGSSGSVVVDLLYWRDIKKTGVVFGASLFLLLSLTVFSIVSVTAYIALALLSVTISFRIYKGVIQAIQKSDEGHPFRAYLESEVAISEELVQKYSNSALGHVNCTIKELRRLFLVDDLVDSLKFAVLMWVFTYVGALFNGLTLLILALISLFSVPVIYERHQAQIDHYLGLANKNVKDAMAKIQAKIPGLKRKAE

reticulon-4 (RTN4/Nogo) [2] = target: T1, reticulon-4 (RTN4/Nogo); test: microscale thermophoresis (MST); HuProt human proteome microarray and competitive pull-down; type: binding; design: RTN4B isoform predominantly captured in pull-down; MST construct printed only as RTN4

Kd (reticulon-4 (RTN4/Nogo) [1]) | Compound | Kd (reticulon-4 (RTN4/Nogo) [2])
12.1 ± 1.28 nM | COc1c(O)cc2oc3cc(O)c(CC=C(C)C)c(O)c3c(=O)c2c1CC=C(C)C [α-MG, α-mangostin] | 
 | biotin-α-MG | 39 ± 1.09 nM

— paper PMC11786723, “Endoplasmic reticulum membrane remodeling by targeting reticulon-4 induces pyroptosis to facilitate antitumor immune” (Protein & Cell, 2024)
